Measured values reported in paper PMC6001238, “Iterative Chemical Engineering of Vancomycin Leads to Novel Vancomycin Analogs With a High in Vitro Therapeutic Index” (Frontiers in Microbiology, 2018).
In brackets after ≈: the same amount, converted by molar mass.

Tests used:
E. faecalis VSE 1 = experiment: MIC, broth microdilution, vancomycin-sensitive E. faecalis (VSE 1); format: cell-based, Enterococcus faecalis; conditions: for MIC: Enterococcus faecalis VSE 1 (vancomycin-sensitive), read-out: MIC; for MIC-fold improvement vs. vancomycin: VSE 1, ratio of MIC of vancomycin and MIC of analogue
How it was run: (§1)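 CLSI broth microdilution; water and uninoculated-broth controls; one arm supplemented with vancomycin, final 10 μM, given with analogue or control antibiotic.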

E. faecalis VRE 6 = experiment: MIC, broth microdilution, vancomycin-resistant E. faecalis VRE 6 (VanA); format: cell-based, Enterococcus faecalis; conditions: for MIC: Enterococcus faecalis VRE 6 (vancomycin-resistant), read-out: MIC; for MIC-fold improvement vs. vancomycin: VRE 6, ratio of MIC of vancomycin and MIC of analogue
How it was run: as §1

E. faecalis VRE 53 = experiment: MIC, broth microdilution, vancomycin-resistant E. faecalis VRE 53 (VanA); format: cell-based, Enterococcus faecalis; conditions: for MIC: Enterococcus faecalis VRE 53 (vancomycin-resistant), read-out: MIC
How it was run: as §1

E. faecalis VRE 29 = experiment: MIC, broth microdilution, vancomycin-resistant E. faecalis VRE 29 (VanA); format: cell-based, Enterococcus faecalis; conditions: for MIC: Enterococcus faecalis VRE 29 (vancomycin-resistant), read-out: MIC
How it was run: as §1

E. faecalis VRE 37 = experiment: MIC, broth microdilution, vancomycin-resistant E. faecalis VRE 37 (VanA); format: cell-based, Enterococcus faecalis; conditions: for MIC: Enterococcus faecalis VRE 37 (vancomycin-resistant), read-out: MIC
How it was run: as §1

[1] = tested on: Murine leukemia (L1210) cells; experiment: Cytostatic activity, L1210 cell proliferation; format: cell-based; conditions: mean ± SD of three experiments; highest concentration tested 250 µM; 2 days; read-out: Toxicity (IC50) L1210
How it was run: (§2)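 Test compounds, serially diluted, received an equal volume of cell suspension at 300,000–500,000 cells/mL. After 37°C incubation (2 days for L1210, 3 for CEM, 4 for HeLa), cells were enumerated by Coulter counting and 50%-inhibitory concentrations calculated per cell type.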

[2] = tested on: human T-lymphocyte (CEM) cells; experiment: Cytostatic activity, CEM cell proliferation; format: cell-based; conditions: mean ± SD of three experiments; highest concentration tested 250 µM; 3 days; read-out: Toxicity (IC50) CEM
How it was run: as §2

[3] = tested on: human cervix carcinoma (HeLa) cells; experiment: Cytostatic activity, HeLa cell proliferation; format: cell-based; conditions: mean ± SD of three experiments; highest concentration tested 250 µM; 4 days; read-out: Toxicity (IC50) HeLa
How it was run: as §2

[4] = tested on: L1210, CEM and HeLa cell lines; experiment: Cytostatic activity, average or summary over L1210, CEM and HeLa; format: cell-based; conditions: average of L1210, CEM and HeLa; read-out: Toxicity (IC50) Average
How it was run: as §2

[5] = tested on: S. aureus VSSA (ATCC 6538); experiment: MIC, broth microdilution, vancomycin-sensitive S. aureus (VSSA/MSSA, ATCC 6538); format: cell-based, Staphylococcus aureus; conditions: for MIC: Staphylococcus aureus VSSA, read-out: MIC; for MIC-fold improvement vs. vancomycin: VSSA, ratio of MIC of vancomycin and MIC of analogue
How it was run: as §1

S. aureus VISA/HIP5827 = experiment: MIC, broth microdilution, vancomycin-intermediate S. aureus VISA HIP5827; format: cell-based, Staphylococcus aureus; conditions: for MIC: Staphylococcus aureus VISA/HIP5827, read-out: MIC; for MIC-fold improvement vs. vancomycin: VISA/HIP5827, ratio of MIC of vancomycin and MIC of analogue
How it was run: as §1

S. aureus VRSA = experiment: MIC, broth microdilution, vancomycin-resistant S. aureus (VRSA); format: cell-based, Staphylococcus aureus; conditions: for MIC: Staphylococcus aureus VRSA, read-out: MIC; for MIC-fold improvement vs. vancomycin: VRSA, ratio of MIC of vancomycin and MIC of analogue
How it was run: as §1

MRSA KS2 = experiment: MIC, broth microdilution, MRSA KS2; format: cell-based, Staphylococcus aureus; conditions: for MIC-fold improvement vs. vancomycin: MRSA KS2, ratio of MIC of vancomycin and MIC of analogue; for MIC: Staphylococcus aureus MRSA KS2, read-out: MIC
How it was run: as §1

MRSA KS6 = experiment: MIC, broth microdilution, MRSA KS6; format: cell-based, Staphylococcus aureus; conditions: for MIC-fold improvement vs. vancomycin: MRSA KS6, ratio of MIC of vancomycin and MIC of analogue; for MIC: Staphylococcus aureus MRSA KS6, read-out: MIC
How it was run: as §1

MRSA KS89 = experiment: MIC, broth microdilution, MRSA KS89; format: cell-based, Staphylococcus aureus; conditions: for MIC-fold improvement vs. vancomycin: MRSA KS8, ratio of MIC of vancomycin and MIC of analogue; for MIC: Staphylococcus aureus MRSA KS8, read-out: MIC
How it was run: as §1

MRSA KS1 = experiment: MIC, broth microdilution, MRSA KS1; format: cell-based, Staphylococcus aureus; conditions: for MIC-fold improvement vs. vancomycin: MRSA KS1, ratio of MIC of vancomycin and MIC of analogue; for MIC: Staphylococcus aureus MRSA KS1, read-out: MIC
How it was run: as §1

Row | MIC (E. faecalis VSE 1) | MIC-fold improvement vs. vancomycin (E. faecalis VSE 1) | MIC (E. faecalis VRE 6) | MIC-fold improvement vs. vancomycin (E. faecalis VRE 6) | MIC (E. faecalis VRE 53) | MIC (E. faecalis VRE 29) | MIC (E. faecalis VRE 37) | MIC [5] | MIC-fold improvement vs. vancomycin [5] | MIC (S. aureus VISA/HIP5827) | MIC-fold improvement vs. vancomycin (S. aureus VISA/HIP5827) | MIC (S. aureus VRSA) | MIC-fold improvement vs. vancomycin (S. aureus VRSA) | MIC-fold improvement vs. vancomycin (MRSA KS2) | MIC (MRSA KS2) | MIC-fold improvement vs. vancomycin (MRSA KS6) | Compound | IC50 [1] | IC50 [2] | IC50 [3] | IC50 [4] | also measured
1 | 0.78 µM (≈ 1.32 µg/mL) | 2 | 6.25 µM (≈ 10.6 µg/mL) | 32 | 25 µM (≈ 42.5 µg/mL) | 12.5 µM (≈ 21.2 µg/mL) | 12.5 µM (≈ 21.2 µg/mL) | 0.78 µM (≈ 1.32 µg/mL) | 1 | 1.56 µM (≈ 2.65 µg/mL) | 4 | 0.78 µM (≈ 1.32 µg/mL) | 128 | 1 | 0.78 µM (≈ 1.32 µg/mL) | 1 | CNC(CC(C)C)C(=O)NC1C(=O)NC(CC(N)=O)C(=O)NC2C(=O)NC3C(=O)NC(C(=O)NC(C(=O)NCC(=O)Nc4ccc(C=Cc5ccc(N)cc5)cc4)c4cc(O)cc(O)c4-c4cc3ccc4O)C(O)c3ccc(c(Cl)c3)Oc3cc2cc(c3OC2OC(CO)C(O)C(O)C2OC2CC(C)(N)C(O)C(C)O2)Oc2ccc(cc2Cl)C1O (centres unmarked) [Vanc-58] | > 250 µM | 197 ± 75 µM | 125 ± 57 µM | 191 µM | MIC-fold improvement vs. vancomycin (E. faecalis VRE 53; VRE 53, ratio of MIC of vancomycin and MIC of analogue): 16; MIC-fold improvement vs. vancomycin (E. faecalis VRE 29; VRE 29, ratio of MIC of vancomycin and MIC of analogue): 32; MIC (MRSA KS6): 0.78 µM (≈ 1.32 µg/mL); MIC-fold improvement vs. vancomycin (MRSA KS89): 1; MIC (MRSA KS89): 0.78 µM (≈ 1.32 µg/mL); MIC-fold improvement vs. vancomycin (MRSA KS1): 0.5; MIC (MRSA KS1): 1.56 µM (≈ 2.65 µg/mL)
2 | 0.39 µM (≈ 0.63 µg/mL) | 4 | 3.13 µM (≈ 5.06 µg/mL) | 64 | 12.5 µM (≈ 20.2 µg/mL) | 6.25 µM (≈ 10.1 µg/mL) | 12.5 µM (≈ 20.2 µg/mL) | 0.39 µM (≈ 0.63 µg/mL) | 2 | 0.39 µM (≈ 0.63 µg/mL) | 16 | 3.13 µM (≈ 5.06 µg/mL) | 32 | 2 | 0.39 µM (≈ 0.63 µg/mL) | 2 | CN[C@H](CC(C)C)C(=O)N[C@H]1C(=O)N[C@@H](CC(N)=O)C(=O)N[C@H]2C(=O)N[C@H]3C(=O)N[C@H](C(=O)N[C@H](C(=O)NCC(=O)Nc4ccc(Cl)cc4)c4cc(O)cc(O)c4-c4cc3ccc4O)[C@H](O)c3ccc(c(Cl)c3)Oc3cc2cc(c3O[C@@H]2O[C@H](CO)[C@@H](O)[C@H](O)[C@H]2O[C@H]2C[C@](C)(N)[C@H](O)[C@H](C)O2)Oc2ccc(cc2Cl)[C@H]1O [Vanc-6] | > 250 µM | 159 ± 13 µM | 91 ± 33 µM | 167 µM | MIC-fold improvement vs. vancomycin (E. faecalis VRE 37; VRE 37, ratio of MIC of vancomycin and MIC of analogue): 64; MIC (MRSA KS6): 0.39 µM (≈ 0.63 µg/mL); MIC-fold improvement vs. vancomycin (MRSA KS89): 2; MIC (MRSA KS89): 0.39 µM (≈ 0.63 µg/mL); MIC-fold improvement vs. vancomycin (MRSA KS1): 2; MIC (MRSA KS1): 0.39 µM (≈ 0.63 µg/mL)
